According to PMC8161026, “Synthesis and Anticancer Activity Evaluation of 5-[2-Chloro-3-(4-nitrophenyl)-2-propenylidene]-4-thiazolidinones” (Molecules, 2021):

Tests used:
[1] = tested on: HOP-92; assay: NCI DTP 60 cell line screen, SRB
[2] = tested on: MDA-MB-435; assay: NCI DTP 60 cell line screen, SRB
[3] = tested on: SNB-75; assay: cells; settings: Homo sapiens, SNB-75, 48 h
[4] = tested on: RPMI-8226; assay: cells; settings: Homo sapiens, RPMI-8226, 48 h
[5] = tested on: DU-145; assay: cells; settings: Homo sapiens, DU-145, 48 h
[6] = tested on: ACHN; assay: NCI DTP 60 cell line screen, SRB; settings: 48 h
[7] = tested on: MDA-MB-231 (breast cancer); assay: MTT cell viability assay; assay type: cell-based; settings: Homo sapiens; MDA-MB-231, MTT, 24 h
Summary of the method: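 MTT assay on AGS, DLD-1, MCF-7 and MDA-MB-231 cancer cell lines, with growth inhibition reported as GI50.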

[8] = tested on: 60 tumor cell lines; assay: NCI60 full panel MG_MID
Procedure: At the first stage of biological activity study, the antitumor activity screening of the selected compounds 2b, 2c, 2f, 2h, and 2j was performed according to the NCI DTP (USA) standard protocol at the concentrations ranging from 10^−4 to 10^−8 M toward 60 tumor cell lines. The percentage of growth was evaluated spectrophotometrically versus controls not treated with test agents after 48 h exposure and using SRB protein assay to estimate cell viability or growth. Dose–response parameters were calculated for each cell line: GI50—molar concentration of the compound that inhibits 50% net cell growth; TGI—molar concentration of the compound leading to the total inhibition; and LC50—molar concentration of the compound leading to 50% net cell death. Furthermore, mean graph midpoints (MG_MID) were calculated for each of the parameters, giving an average activity parameter over all cell lines for the tested compound. For the MG_MID calculation, insensitive cell lines were included with the highest concentration tested.
Primary anticancer assay was performed on a panel of approximately sixty human tumor cell lines derived from nine neoplastic diseases, in accordance with the protocol of the Drug Evaluation Branch, National Cancer Institute, Bethesda. Tested compounds were added to the culture at a single concentration (10^−5 M) and the cultures were incubated for 48 h. End point determinations were made with a protein binding dye, sulforhodamine B (SRB). […] The percentage growth was evaluated spectrophotometrically versus controls not treated with test agents.
Dose–response parameters (GI50, TGI, LC50) were calculated for each compound. […] The drug concentration resulting in total growth inhibition (TGI) was calculated from Ti = Tz. The LC50 (concentration of drug resulting in a 50% reduction in the measured protein at the end of the drug treatment as compared to that at the beginning) indicating a net loss of cells following treatment was calculated from [(Ti − Tz)/Tz] × 100 = −50 (2). Values were calculated for each of these parameters if the level of activity was reached; however, if the effect was not reached or was excessive, the value for that parameter was expressed as more or less than the maximum or minimum concentration tested.

[9] = tested on: 786-0; settings: 786-0 (Renal Cancer), 48 h, SRB
[10] = tested on: HCT-116; settings: HCT-116 (Colon Cancer), 48 h, SRB
[11] = tested on: UO-31; assay: NCI DTP 60 cell line screen, SRB
[12] = tested on: K-562; assay: cells; settings: Homo sapiens, K562, 48 h
[13] = tested on: SF-295; assay: NCI DTP 60 cell line screen, SRB
[14] = tested on: T-47D; settings: T-47D (Breast Cancer), 48 h, SRB
[15] = tested on: 786-0; assay: cells; settings: Homo sapiens, 786-0, 48 h
[16] = tested on: EKVX; settings: EKVX (Non-Small Cell Lung Cancer), 48 h, SRB
[17] = tested on: Colo 205; assay: NCI DTP 60 cell line screen, SRB
[18] = tested on: SF-539; assay: NCI DTP 60 cell line screen, SRB
[19] = tested on: TK-10; assay: NCI DTP 60 cell line screen, SRB
[20] = tested on: NCI-H522; assay: NCI DTP 60 cell line screen, SRB
[21] = tested on: PC-3; settings: PC-3 (Prostate Cancer), 48 h, SRB

O=C1NC(=S)S/C1=C\C(Cl)=C\c1ccc([N+](=O)[O-])cc1 [Compound 2b, 5-[(Z,2Z)-2-Chloro-3-(4-nitrophenyl)-2-propenylidene]-2-thioxo-4-thiazolidinone] was tested, and the TGI ([1]; HOP-92 (Non-Small Cell Lung Cancer), 48 h, SRB) was greater than 50 µM, the GI50 ([1]; Homo sapiens, HOP-92, 48 h) was 8.48 µM and the CC50 ([1]; Homo sapiens, HOP-92, 48 h, read-out: LC50) was greater than 50 µM. The GI50 ([2]; Homo sapiens, MDA-MB-435, 48 h) was 8.57 µM, the CC50 ([2]; Homo sapiens, MDA-MB-435, 48 h, read-out: LC50) was greater than 50 µM and the TGI ([2]; MDA-MB-435 (Breast Cancer), 48 h, SRB) was 47.9 µM. It also gave a GI50 [3] of 7.59 µM, a CC50 ([3]; read-out: LC50) greater than 50 µM and a GI50 [4] of 1.54 µM. It also gave a CC50 ([4]; read-out: LC50) greater than 50 µM, a GI50 [5] of 7.09 µM and a CC50 ([5]; read-out: LC50) of 28.4 µM. It also gave a TGI ([6]; ACHN (Renal Cancer), SRB) of 11.8 µM, a GI50 ([6]; Homo sapiens, ACHN) of 3.64 µM and a CC50 ([6]; Homo sapiens, ACHN, read-out: LC50) of 31.7 µM. For the same molecule, the GI50 [7] was 10.6 µM, the GI50 ([8]; Homo sapiens, read-out: 60 lines MG_MID, GI50) was 4.79 µM and the CC50 ([8]; Homo sapiens, read-out: 60 lines MG_MID, LC50) was 43.5 µM. The “60 lines MG_MID, TGI” value ([8]; mean over all cell lines) was 20.3 µM, the TGI [9] was 18.8 µM and the TGI [10] was 11.0 µM. For the same molecule, the GI50 ([11]; Homo sapiens, UO-31, 48 h) was 4.12 µM, the CC50 ([11]; Homo sapiens, UO-31, 48 h, read-out: LC50) was greater than 50 µM and the TGI ([11]; UO-31 (Renal Cancer), 48 h, SRB) was 21.8 µM. It also gave a GI50 [12] of 1.44 µM, a CC50 ([12]; read-out: LC50) greater than 50 µM and a GI50 ([13]; Homo sapiens, SF-295, 48 h) of 8.46 µM. For the same molecule, the CC50 ([13]; Homo sapiens, SF-295, 48 h, read-out: LC50) was greater than 50 µM, the TGI ([13]; SF-295 (CNS Cancer), 48 h, SRB) was 37.9 µM and the TGI [14] was greater than 50 µM. The GI50 [15] was 9.4 µM, the CC50 ([15]; read-out: LC50) was 37.6 µM and the TGI [16] was greater than 50 µM. For the same molecule, the TGI ([17]; Colo 205 (Colon Cancer), 48 h, SRB) was 17.4 µM, the GI50 ([17]; Homo sapiens, COLO 205, 48 h) was 4.04 µM and the CC50 ([17]; Homo sapiens, COLO 205, 48 h, read-out: LC50) was greater than 50 µM. For the same molecule, the GI50 ([18]; Homo sapiens, SF-539, 48 h) was 9.39 µM, the CC50 ([18]; Homo sapiens, SF-539, 48 h, read-out: LC50) was greater than 50 µM and the TGI ([18]; SF-539 (CNS Cancer), 48 h, SRB) was 23.1 µM. It also gave a GI50 ([19]; Homo sapiens, TK-10, 48 h) of 10.6 µM, a CC50 ([19]; Homo sapiens, TK-10, 48 h, read-out: LC50) greater than 50 µM and a TGI ([19]; TK-10 (Renal Cancer), 48 h, SRB) of 23.2 µM. It also gave a GI50 ([20]; Homo sapiens, NCI-H522, 48 h) of 3.19 µM, a CC50 ([20]; Homo sapiens, NCI-H522, 48 h, read-out: LC50) of 42.3 µM and a TGI ([20]; NCI-H522 (Non-Small Cell Lung Cancer), 48 h, SRB) of 13.1 µM. It also gave a TGI [21] greater than 50 µM.
